Experimental data taken from US10550165B2, “Peptide for inducing regeneration of tissue and use thereof” (STEMRIM INC., priority 2011, dated 2020).

How the values were obtained:
[1] = system: mouse bone marrow mesenchymal stem cell line (MSC-1 cells), PDGFRα-positive; assay: Migration assay (Boyden / 48-well chemotaxis chamber) on bone marrow mesenchymal stem cell line MSC-1; type: cell-based
How it was run: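 Mouse MSC-1 cells (3×10^6 cells/ml in D-MEM with 10% FBS) loaded in the upper wells of a 48-well Boyden chamber with 8 μm polycarbonate membrane; mouse HMGB1 peptides or HEK293-made HMGB1 in lower wells at 100 μg/ml, 5 μM or 10 μM; PBS as negative control. After 4 h at 37° C, migrated cells were Diff-Quik stained.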

[2] = system: PDGFRα-positive, CD44-positive cells in the peripheral blood; assay: Mobilization of PDGFRα-positive, CD44-positive cells into peripheral blood (FACS); type: in vivo, mouse; conditions: 10 μg via the caudal vein, C57Bl6 mice, blood after 12 hours; PBS group 1.33%
Experimental: 10 μg of synthetic peptide (amino acids of positions 1 to 44) was dissolved in 200 μl of PBS and administered to C57B16 mice (female, 8 weeks old) via the caudal vein using a syringe with 30-gauge needle. An equal volume of PBS was administered as a negative control. After 12 hours, peripheral blood was collected from the left ventricle of the heart under systemic anesthesia with isoflurane. After adding 3 ml of PBS (Nacalai tesque; Cat. 14249-95), 3 ml of Ficoll-Paque Plus (GE Healthcare; Cat. 17-1440-02) was overlaid onto the blood. The blood was centrifuged in a centrifuge at 400 G and 25° C. for 45 minutes. The upper serum layer was discarded, and only the cells seen as a white band in the intermediate layer were collected. Then, 45 ml of PBS was added to the collected cells, and centrifuged in a centrifuge at 800 G and 25° C. for 20 minutes. After the supernatant was discarded, 10 ml of PBS was added and centrifuged at 1500 rpm and 25° C. for 10 minutes. The supernatant was discarded and 1 ml of hemolysis buffer (HLB; Immuno-Biological Laboratories) was added to the cells. After pipetting, the cells were allowed to stand for 5 minutes. Then, 10 ml of PBS was added to the cells and centrifuged at 1500 rpm and 25° C. for 10 minutes. […] The cells prepared as described above were analyzed using FACSCant™ II.

[3] = system: skin flap made on the back of a rat; assay: Skin flap (skin damage) model on the back of rats; type: in vivo; conditions: six weeks after skin flap production; 50 μg/administration/day, five administrations, FIG. 26
[4] = 2 μM, area of migrated cells by image analysis, FIG. 10

synthetic peptide (1-44): chemically synthesized HMGB1 peptide, amino acids 1 to 44, mouse HMGB1 sequence (MGKGDPKKPRGKMSSYAFFVQTCREEHKKKHPDASVNFSEFSKK; UniProt P63158 1-44, looked up, fragment)
migration-promoting activity relative to the full-length HMGB1, compared per equal mass [1, 4]: 2.86 times
migration-promoting activity relative to the full-length HMGB1, compared per equal mole [1, 4]: 0.57 times
migration-promoting activity ([1]; synthetic peptides, 100 μg/ml, positive control 1-215(HEK), FIG. 7): activity comparable to or higher than that of the positive control
proportion of PDGFRα-positive, CD44-positive cells in the peripheral blood, average [2]: 4.33%
ratio of the uncured area relative to the area of the whole skin flap, average [3]: 4.1%
